From patent US20080032945A1, “2'-MODIFIED OLIGONUCLEOTIDES” (Isis Pharmaceuticals, Inc., priority 1992, published 2008)
Read-outs that look alike come from different tables or passages of the source. [OPent] = 2'-O-pentyl ribonucleoside; [OPr] = 2'-O-propyl ribonucleoside; d = 2'-deoxy (DNA)

Key:
PKC-α mRNA = assay: Northern blot analysis of PKC-α mRNA levels; type: cell-based, human; conditions: result in words
Method: Oligonucleotides having SEQ ID NO:4 were synthesized as uniformly phosphorothioate chimeric oligonucleotides having a centered deoxy gap of varying lengths flanked by 2′-O-methylated regions. These oligonucleotides (500 nM concentration) were tested for effects on PKC-A mRNA levels by Northern blot analysis.
Additional phosphorothioate oligonucleotides targeted to the human PKC-α 3′ untranslated region were designed and synthesized.

[1] = test system: complementary RNA strand (the sense strand); assay: Thermal melting analysis of 2′-deoxy-2′-fluoro modified oligonucleotides (hybridization thermodynamics); type: binding
ras mRNA = assay: Northern blot analysis of ras expression in T24 cells; type: cell-based, human
Method: The human urinary bladder cancer cell line T24 was obtained from the American Type Culture Collection (Rockville Md.). Cells were grown in McCoy's 5A medium with L-glutamine (GIBCO-BRL, Gaithersburg, Md.), supplemented with 10% heat-inactivated fetal calf serum and 50 U/ml each of penicillin and streptomycin. Cells were seeded on 100 mm plates. When they reached 70% confluency, they were treated with oligonucleotide. Plates were washed with 10 ml prewarmed PBS and 5 ml of OptiMEM (GIBCO) reduced-serum medium containing 2.5 μl DOTMA. Oligonucleotide was then added to the desired concentration. After 4 hours of treatment, the medium was replaced with McCoy's medium. Cells were harvested 48 hours after oligonucleotide treatment and RNA was isolated using a standard CsCl purification method. [Kingston in Current Protocols in Molecular Biology, F. M. Ausubel, R. Brent, R. E. Kingston, D. D. Moore, J. A. Smith, J. G. Seidman and K. Strahl, Eds., John Wiley and Sons, New York.] The human epithelioid carcinoma cell line HeLa 229 was obtained from the American Type Culture Collection (Bethesda, Md.). HeLa cells were maintained as monolayers on 6-well plates in Dulbecco's Modified Eagle's medium (DMEM) supplemented with 10% fetal bovine serum and 100 U/ml penicillin. Treatment with oligonucleotide and isolation of RNA were essentially as described above for T24 cells.
Northern hybridization: 10 μg of each RNA was electrophoresed on a 1.2% agarose/formaldehyde gel and transferred overnight to GeneBind 45 nylon membrane (Pharmacia LKB, Piscataway, N.J.) using standard methods. [Kingston in Current Protocols in Molecular Biology, F. M. Ausubel, R. Brent, R. E. Kingston, D. D. Moore, J. A. Smith, J. G. Seidman and K. Strahl, Eds., John Wiley and Sons, New York.] RNA was UV-crosslinked to the membrane. Double-stranded ^32P-labeled probes were synthesized using the Prime a Gene labeling kit (Promega, Madison Wis.). The ras probe was a SalI-NheI fragment of a cDNA clone of the activated (mutant) H-ras mRNA having a GGC-to-GTC mutation at codon-12. The control probe was G3PDH. Blots were prehybridized for 15 minutes at 68° C. with the QuickHyb hybridization solution (Stratagene, La Jolla, Calif.). The heat-denatured radioactive probe (2.5×10^6 counts/2 ml hybridization solution) mixed with 100 μl of 10 mg/ml salmon sperm DNA was added and the membrane was hybridized for 1 hour at 68° C. The blots were washed twice for 15 minutes at room temperature in 2×SSC/0.1% SDS and once for 30 minutes at 60° C. with 0.1×SSC/0.1% SDS. Blots were autoradiographed and the intensity of signal was quantitated using an ImageQuant PhosphorImager (Molecular Dynamics, Sunnyvale, Calif.). Northern blots were first hybridized with the ras probe, then stripped by boiling for 15 minutes in 0.1×SSC/0.1% SDS and rehybridized with the control G3PDH probe to check for correct sample loading.

[2] = test system: ras-luciferase (codon-12 point mutation of activated H-ras); assay: ras-luciferase reporter gene system; type: cell-based, human; conditions: for inhibition of ras-luciferase activity: cells expressing the mutant form of ras-luciferase, dose response, FIGS. 1 and 2; for effect on ras expression: chimeric backbone-modified oligonucleotides, result in words
[3] = test system: 25mer oligoribonucleotide complement; assay: Melting curves with 25mer oligoribonucleotide complement; type: binding; conditions: 17mer hybridized with 25mer oligoribonucleotide complement
Description: Other sugar modifications: The effects of other 2′ sugar modifications besides 2′-O-methyl on antisense activity in chimeric oligonucleotides have been examined. These modifications are listed in Table 4, along with the Tm values obtained when 17mer oligonucleotides having 2′-modified nucleotides flanking a 7-base deoxy gap were hybridized with a 25mer oligoribonucleotide complement as described in Example 25. […] As alkyl length increased, Tm decreased.
Absorbance vs. temperature curves were measured at 260 nm using a Gilford 260 spectrophotometer interfaced to an IBM PC computer and a Gilford Response II spectrophotometer. The buffer contained 100 mM Na^+, 10 mM phosphate and 0.1 mM EDTA, pH 7. Oligonucleotide concentration was 4 μM each strand determined from the absorbance at 85° C. and extinction coefficients calculated according to Puglisi and Tinoco [Methods in Enzymol., 180, 304 (1989). Tm values, free energies of duplex formation and association constants were obtained from fits of data to a two state model with linear sloping baselines. [Petersheim and Turner, Biochemistry, 22, 256 (1983). Reported parameters are averages of at least three experiments. For some oligonucleotides, free energies of duplex formation were also obtained from plots of Tm^−1 vs log10 (concentration). Borer et al., J. Mol. Biol., 86, 843 (1974).

[4] = duplex with complementary RNA, first Tm column

## AoAoAoAoCoGsTsCsAsGsCsCsAsTsGoGoToCoCoC (AAAACGTCAGCCATGGTCCC; linkages o5 s9 o5 (s phosphorothioate, o phosphodiester), sugars by position and methylation of C not given here; further chemistry not fully specified) [Oligonucleotide 7273]
PKC-α mRNA
  effect on PKC-α mRNA levels: more active than their 2′-β-methyl counterparts

## AsAoAoAoCoGsTsCsAsGsCsCsAsTsGoGoToCoCsC (AAAACGTCAGCCATGGTCCC; linkages s1 o4 s9 o4 s1 (s phosphorothioate, o phosphodiester), sugars by position and methylation of C not given here; further chemistry not fully specified) [Oligonucleotide 7008]
PKC-α mRNA; listed as 7008
  effect on PKC-α mRNA levels: reduction of PKC-α mRNA

## AsAoAoAoCoGsTsCsAsGsCsCsAsTsGoGoToCoCsC (AAAACGTCAGCCATGGTCCC; linkages s1 o4 s9 o4 s1 (s phosphorothioate, o phosphodiester), sugars by position and methylation of C not given here; further chemistry not fully specified) [Oligonucleotide 7294]
PKC-α mRNA; listed as 7294
  effect on PKC-α mRNA levels: more active than their 2′-β-methyl counterparts

## AsAsAsAsCsGsTsCsAsGsCsCsAsTsGsGsTsCsCsC (AAAACGTCAGCCATGGTCCC; all phosphorothioate, sugars by position and methylation of C not given here; further chemistry not fully specified) [Oligonucleotide 5352]
PKC-α mRNA
  effect on PKC-α mRNA levels: most active

## AsAsAsAsCsGsTsCsAsGsCsCsAsTsGsGsTsCsCsC (AAAACGTCAGCCATGGTCCC; listed as DNA, chemistry not fully specified) [Oligonucleotide 3522, reference compound]
PKC-α mRNA
  effect on PKC-α mRNA levels: reduction of PKC-α mRNA

## CTC GTA CCT TCC GGT CC: unmodified phosphodiester, SEQ ID NO: 22 (CTCGTACCTTCCGGTCC; unmodified DNA)
[1]; [4]
  Tm: 61.6 °C

## CTTATATTCCGTCATCGCTC (chemistry not given here) [Compound 2502, phosphorothioate oligonucleotide complementary to the ras AUG region, 20 deoxy, reference compound]
Ras mRNA
  inhibition of ras expression / decrease of ras mRNA: 26%

## CTTATATTCCGTCATCGCTC (chemistry not given here) [Oligonucleotide 4998, chimeric phosphorothioate, 7-base deoxy gap flanked by 2′-O-methyl regions, AUG target]
Ras mRNA; listed as 4998
  inhibition of ras expression / decrease of ras mRNA: 84%

## CUC GUA CCU UCC GGU CC: SEQ ID NO: 28; adenosine, thymidine and cytidine nucleotides modified to contain 2′-deoxy-2′-fluoro substituents (CUCGUACCUUCCGGUCC; 2'-fluoro on A, U/T, C, G sugar and linkages not given here, further chemistry not given here)
[1]; [4]
  Tm: 81.6 °C

## C^MC^MA^M C^MA^MC^M C^MG^MAd C^MG^MG^M C^MG^MC^M C^MC^M [Oligonucleotide 3975]
[2]
  inhibition of ras-luciferase activity: neither of the oligonucleotides having either the one or the three 2′-deoxy-erythro-pentofuranosyl nucleotide subsequences showed significant activity

## C^MC^MA^M C^MA^MC^M C^MGdAd CdG^MG^M C^MG^MC^M C^MC^M [Oligonucleotide 3979]
[2]
  inhibition of ras-luciferase activity: measurable activity for the three nucleotide subsequence oligonucleotide 3979 at the highest concentration dose

## C^MC^MA^M C^MA^MC^M CdGdAd CdGdG^M C^MG^MC^M C^MC^M [Oligonucleotide 3980]
[2]
  inhibition of ras-luciferase activity: next greatest inhibition
Ras mRNA
  inhibition of ras expression / decrease of ras mRNA: 61%

## C^MC^MA^M C^MAdCd CdGdAd CdGdGd CdG^MC^M C^MC^M [Oligonucleotide 3984]
[2]
  inhibition of ras-luciferase activity: greater inhibition of ras-luciferase activity than did oligonucleotide 2570
Ras mRNA
  inhibition of ras expression / decrease of ras mRNA: 81%

## CsCsAsCoAoCoCoGoAoCoGoGoCoGsCsCsC [ISIS 4241]
[2]
  effect on ras expression: completely inactive

## CsCsAsCsAsCsCsGsAoCsGsGsCsGsCsCsC [ISIS 4248]
[2]
  effect on ras expression: just as active as a full P═S molecule

## O-Pentyl: 17-mer CCACACCGACGGCGCCC (SEQ ID NO: 1), 2′-O-pentyl nucleotides flanking a 7-base deoxy gap (sugars from the 5' end [OPent]5 d7 [OPent]5, backbone and methylation of C not given here)
[3]
  Tm: 68.5 °C

## O-Propyl: 17-mer CCACACCGACGGCGCCC (SEQ ID NO: 1), 2′-O-propyl nucleotides flanking a 7-base deoxy gap (sugars from the 5' end [OPr]5 d7 [OPr]5, backbone and methylation of C not given here)
[3]
  Tm: 70.4 °C

## TCCGTCATCGCTCCTCAGGG [Oligonucleotide 5122]
Ras mRNA; listed as 5122
  inhibition of ras expression / decrease of ras mRNA: 15%

## TsCsTs CsGsCs TsGsGs TsGsAs GsTsTs TsC (TCTCGCTGGTGAGTTTC; all phosphorothioate, sugars by position and methylation of C not given here; further chemistry not fully specified) [Oligonucleotide 7082]
PKC-α mRNA
  effect on PKC-α mRNA levels: most active

## TsTsCs TsCsGs CsTsGs GsTsGs AsGsTs TsTsC (TTCTCGCTGGTGAGTTTC; all phosphorothioate, sugars by position and methylation of C not given here; further chemistry not fully specified) [Oligonucleotide 6632]
PKC-α mRNA
  effect on PKC-α mRNA levels: most active

## oligonucleotide with the 2′-O-propyl diester flanking regions: SEQ ID NO:1, phosphorothioate backbone in the 7-base deoxy gap only, phosphodiester 2′-O-propyl flanking regions (CCACACCGACGGCGCCC; 2'-O-propyl phosphodiester flanks, 7-deoxy phosphorothioate gap, exact positions not given here)
[2]
  effect on ras expression: able to inhibit ras expression

## ps(CGA CTA TGC AAG TAC)
[1]; change in Tm relative to the unmodified oligonucleotide
  Tm: −11.2 °C
[1]; [4]
  Tm: 33.9 °C

## ps(CGA CUA UGC AAG UAC)
[1]; [4]
  Tm: 60.9 °C
